Measurements reported in publication PMC6271783 (Molecules, 2014).
Entries after “also recorded” stand apart in the source; their conditions may differ.

Legend:
rat α3β2 nAChRs [1] = biological target: T1, rat α3β2 nAChRs (Rattus norvegicus, UniProt P04757+P12390); test: biochemical
T1 construct: expressed in transfected cells; host or cells: Xenopus laevis oocytes injected with cRNA

[2] = type: physicochemical; conditions: pH 7
rat α3β2 nAChRs [3] = biological target: T1, rat α3β2 nAChRs; type: biochemical
[4] = system: AChBPs from different species; conditions: cited from earlier work
α3β2 nAChRs = conditions: cited from earlier work

T1 sequence (P04757 26-499 limits assumed): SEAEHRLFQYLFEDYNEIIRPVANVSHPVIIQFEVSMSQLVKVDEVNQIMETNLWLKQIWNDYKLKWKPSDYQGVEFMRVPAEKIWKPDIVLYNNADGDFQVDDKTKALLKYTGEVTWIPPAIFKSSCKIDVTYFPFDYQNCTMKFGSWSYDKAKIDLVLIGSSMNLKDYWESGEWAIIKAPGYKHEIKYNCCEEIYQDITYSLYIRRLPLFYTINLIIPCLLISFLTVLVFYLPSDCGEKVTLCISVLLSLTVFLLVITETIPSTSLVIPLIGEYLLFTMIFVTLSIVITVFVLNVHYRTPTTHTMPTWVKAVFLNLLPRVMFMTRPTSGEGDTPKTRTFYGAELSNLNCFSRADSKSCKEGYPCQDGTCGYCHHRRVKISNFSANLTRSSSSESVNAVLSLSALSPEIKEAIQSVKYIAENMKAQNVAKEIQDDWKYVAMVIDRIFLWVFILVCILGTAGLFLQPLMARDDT
T1 sequence (P12390 25-500 limits assumed): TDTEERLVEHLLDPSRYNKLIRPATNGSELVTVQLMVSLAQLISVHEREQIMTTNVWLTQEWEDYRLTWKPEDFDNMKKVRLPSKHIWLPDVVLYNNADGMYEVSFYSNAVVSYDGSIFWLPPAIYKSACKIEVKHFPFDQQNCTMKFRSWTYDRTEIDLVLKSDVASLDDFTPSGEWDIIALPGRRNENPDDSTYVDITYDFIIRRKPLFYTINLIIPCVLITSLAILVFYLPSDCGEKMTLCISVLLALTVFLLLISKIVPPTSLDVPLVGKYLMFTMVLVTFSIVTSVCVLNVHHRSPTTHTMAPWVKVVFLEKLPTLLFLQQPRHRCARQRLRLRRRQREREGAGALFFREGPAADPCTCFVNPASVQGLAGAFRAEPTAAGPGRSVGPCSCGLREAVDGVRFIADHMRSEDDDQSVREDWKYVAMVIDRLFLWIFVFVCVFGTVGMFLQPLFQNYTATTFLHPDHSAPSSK

Row | Compound | IC50 (rat α3β2 nAChRs [1]) [nM] | activity on α3β2 nAChRs (rat α3β2 nAChRs [1]) | fold more potent than ribbon isomer (rat α3β2 nAChRs [1]) | inhibition of ACh-evoked response (rat α3β2 nAChRs [1]) | reversibility of inhibition (rat α3β2 nAChRs [1]) | CD minimum [2] | CD minimum, second of double minimum [2] [nm] | secondary structure by CD [2] | relative potency among venom components (rat α3β2 nAChRs [3]) | affinity to AChBPs [4] | selectivity (α3β2 nAChRs) | fold less potent than globular isomer (rat α3β2 nAChRs [1]) | inhibition at 0.5 µM (rat α3β2 nAChRs [1]; read-out: inhibition of ACh evoked current amplitude) [%]
1 | CC[C@H](C)[C@@H]1NC(=O)[C@@H]2CSSC[C@H](NC(=O)CN)C(=O)N[C@@H](CSSC[C@@H](C(N)=O)NC(=O)[C@H](CC(C)C)NC(=O)[C@H](CC(=O)O)NC(=O)[C@@H]3CCCN3C(=O)[C@H](CC(N)=O)NC(=O)[C@H](CC(N)=O)NC(=O)[C@H](C)NC1=O)C(=O)N[C@@H](CO)C(=O)N[C@@H](CCCNC(=N)N)C(=O)N1CCC[C@H]1C(=O)N1CCC[C@H]1C(=O)N2 [globular TxIA, α-conotoxin TxIA] | 5.4 | most potent isoform; also recorded: strongly inhibited; also recorded: most active form | ~ 80 -fold | almost complete inhibition | reversibly inhibited | around 208 nm | ~222 | contained some α-helical structure | most potent component; also recorded: highest potency | high affinity | selectively targeted the α3β2 nAChRs |  | 
2 | CC[C@H](C)[C@@H]1NC(=O)[C@@H]2CSSC[C@H](NC(=O)[C@@H](NC(=O)CN)CSSC[C@@H](C(N)=O)NC(=O)[C@H](CC(C)C)NC(=O)[C@H](CC(=O)O)NC(=O)[C@@H]3CCCN3C(=O)[C@H](CC(N)=O)NC(=O)[C@H](CC(N)=O)NC(=O)[C@H](C)NC1=O)C(=O)N[C@@H](CO)C(=O)N[C@@H](CCCNC(=N)N)C(=O)N1CCC[C@H]1C(=O)N1CCC[C@H]1C(=O)N2 [ribbon TxIA] | 430 | weaker potency |  |  |  |  |  | between them |  |  |  | ~ 80 times | ~65
